The source of these data is ChEMBL document CHEMBL1201862, “PubChem BioAssay data set” (2004).

Where a name gives a salt, the structure may show the parent alone.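 Briefly, cells in 96-well plates were exposed to five compound concentrations for 48 h, and endpoints were estimated by linear interpolation. Here, GI50 denotes the concentration required for 50% inhibition of growth.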 Activity calls are given as the source filed them. Cut-off read from the data, not from the text of the source: active = GI50 up to about 1.1 µM and inactive = higher.

Test in all cases: NCI tumour cell line growth inhibition, 48 h
Assay [1] concerns 786-0.
The test system of assay [2] is BT-549.
Assay [3] deals with HCC 2998.
Assay [4] has as its system HCT-15.
Assay [5] deals with HT-29.
Assay [6] deals with Hs-578T.
For assay [7], the system named is LOX IMVI.
Assay [8] deals with M14.
Assay [9] has as its system MDA-MB-435.
Assay [10] concerns MOLT-4.
Assay [11] deals with NCI-H460.
Assay [12] has as its system NCI-H522.
The test system of assay [13] is OVCAR-4.
The test system of assay [14] is OVCAR-8.
The subject of assay [15] is SF-268.
For assay [16], the system named is SF-295.
The subject of assay [17] is SK-MEL-28.
Assay [18] concerns SK-MEL-2.
For assay [19], the system named is TK-10.
Assay [20] concerns T47D.

For the compound `O=C1c2ccccc2/C=C\C(c2ccccc2)=N/N1c1ccccc1Cl`, the GI50 was 29.2 µM (inactive) in assay [1]; 10.9 µM (inactive) in assay [2]; 30.3 µM (inactive) in assay [3]; 29.5 µM in assay [4]; 17.5 µM (inactive) in assay [5]; 34.5 µM (inactive) in assay [6]. In addition, the GI50 was 25.1 µM (inactive) in assay [7]; 21.9 µM (inactive) in assay [8]; 3.44 µM (inactive) in assay [9]; 15.3 µM (inactive) in [10]; 28.6 µM (inactive) in assay [11]; 12.2 µM (inactive) in assay [12]. The GI50 in assay [13] is 22.4 µM (inactive); in assay [14], 27.4 µM (inactive); in assay [15], 54.2 µM (inactive); in assay [16], 26.1 µM (inactive); in assay [17], 24 µM (inactive); in assay [18] it was 60 µM (inactive). The GI50 in assay [19] is 42.8 µM (inactive).
For `CN(C)CCOC(c1ccccc1)c1ccccc1` [DIPHENHYDRAMINE HYDROCHLORIDE], the GI50 in [1] was > 100 µM (inactive); in [3], > 100 µM (inactive); in assay [4], > 100 µM; in [5], > 100 µM (inactive); in [6] it was 66.7 µM (inactive); in assay [7] it was > 100 µM (inactive). For the same compound, the GI50 in assay [8] is 51.2 µM (inactive); in assay [9] it was > 100 µM (inactive); in assay [10], > 100 µM (inactive); in assay [11], > 100 µM (inactive); in [12], > 100 µM (inactive); in assay [13], > 100 µM (inactive). In addition, the GI50 is > 100 µM (inactive) in [14]; > 100 µM (inactive) in [17]; 72.4 µM (inactive) in assay [18]; > 100 µM (inactive) in assay [20]; > 100 µM (inactive) in assay [19].
As for `C/C=C1/CC(C(=O)OC)N(C(=O)OCc2ccccc2)C1=S` (configuration not stated), the GI50 in [1] is > 100 µM (inactive); in assay [2], > 100 µM (inactive); in assay [3] it was 7.73 µM (inactive); in assay [4], > 100 µM; in assay [5] it was > 100 µM (inactive); in assay [6], > 100 µM (inactive). Further, the GI50 in assay [8] was > 100 µM (inactive); in assay [9] it was > 100 µM (inactive); in [10], > 100 µM (inactive); in assay [11] it was 12.3 µM (inactive); in assay [12] it was > 100 µM (inactive); in assay [13], > 100 µM (inactive). Further, the GI50 in [14], in assay [15], in assay [16], in assay [17], in assay [18] and in assay [19] was > 100 µM (inactive) in each case.
`O=C(CN1CCOCC1)c1ccc2c(c1)oc(=O)n2CCN1CCCC1`: the GI50 is > 100 µM (inactive) in [1]; > 100 µM (inactive) in [2]; > 100 µM in assay [4]; > 100 µM (inactive) in [5]; > 100 µM (inactive) in assay [6]; > 100 µM (inactive) in assay [7]. For the same compound, the GI50 in assay [8], in assay [9], in assay [10], in [11], in [14] and in assay [15] was > 100 µM (inactive) throughout. The GI50 in assay [16], in assay [17], in assay [18] and in [19] was > 100 µM (inactive) throughout.
Take `COC(=O)C(NC(=O)CSc1nnc(COc2ccc(Cl)cc2)n1-c1ccccc1)C(C)C` (configuration not stated): the GI50 is 18.1 µM (inactive) in [1]; 18.6 µM (inactive) in assay [3]; 36.7 µM in [4]; 17 µM (inactive) in assay [5]; 26.2 µM (inactive) in assay [7]; 21.9 µM (inactive) in [8]. Further, the GI50 is 19.9 µM (inactive) in assay [9]; 21.6 µM (inactive) in [10]; 33.2 µM (inactive) in assay [11]; 10.6 µM (inactive) in assay [12]; 25.6 µM (inactive) in assay [13]; 23.7 µM (inactive) in [14]. The GI50 in assay [15] was 20.7 µM (inactive); in [16], 22 µM (inactive); in [17], 21.5 µM (inactive); in assay [18], 18.7 µM (inactive); in [20] it was 20.8 µM (inactive); in assay [19], 15.6 µM (inactive).
On to `CC(=O)OCC(OC(C)=O)C1C[C@H]2O[C@@H]3[C@H](C[C@H]2O1)O[C@@]1(C[C@@H]3C)C[C@H](C)[C@@H]2O[C@]3(C[C@@H]2O1)C[C@H]1O[C@H]2[C@H](C)[C@H]4OC(=O)C[C@H]5CC[C@@H]6OC7[C@H]8O[C@]9(CC[C@H]%10CC(=O)[C@H](CC[C@H]%11C[C@@H](C)C(=O)C(C[C@@H]4O[C@H]2C[C@H]1O3)O%11)O%10)CC8O[C@@H]7[C@@H](O9)[C@H]6O5` (some centres not stated), for which the GI50 was 0.00308 µM (active) in assay [1]; 0.000553 µM (active) in assay [2]; 0.003 µM (active) in assay [3]; 0.00635 µM in assay [4]; 0.00179 µM (active) in [6]; 0.00486 µM (active) in assay [7]. The GI50 in assay [8] is 0.00619 µM (active); in [9], 0.000195 µM (active); in assay [10] it was 0.0184 µM (active); in assay [11], 0.00315 µM (active); in [12] it was 0.00051 µM (active); in assay [14], 0.00964 µM (active). For the same compound, the GI50 in assay [15] was 0.00509 µM (active); in assay [16] it was 0.00242 µM (active); in assay [17] it was 0.011 µM (active); in assay [18] it was 0.0481 µM (active).
On to `O=C(NC/C(Cl)=C/Cl)Nc1c2ccccc2nc2ccccc12`, for which the GI50 is 33.3 µM (inactive) in assay [1]; 86.3 µM (inactive) in [3]; 59 µM in [4]; 53.2 µM (inactive) in [5]; > 100 µM (inactive) in assay [6]; 61.2 µM (inactive) in [7]. Also, the GI50 in assay [8] was 84.5 µM (inactive); in [9], > 100 µM (inactive); in [10], 29.3 µM (inactive); in [11], 60.3 µM (inactive); in assay [12], > 100 µM (inactive); in assay [13] it was 35.4 µM (inactive). Further, the GI50 in [14] is 56.4 µM (inactive); in assay [15] it was > 100 µM (inactive); in [16], > 100 µM (inactive); in assay [17], > 100 µM (inactive); in assay [18] it was > 100 µM (inactive); in assay [20] it was 71.1 µM (inactive). Also, the GI50 in assay [19] was > 100 µM (inactive).
As for `COc1ccc(C2=C(Cl)C(=O)O/C2=C\c2ccc(OC)c(Br)c2)cc1Cl`, the GI50 is 17.2 µM (inactive) in [1]; 57.9 µM (inactive) in [3]; 55.2 µM in assay [4]; > 100 µM (inactive) in [5]; 27.4 µM (inactive) in [6]; 58.9 µM (inactive) in assay [7]. For the same compound, the GI50 in assay [8] was 70.8 µM (inactive); in assay [9], > 100 µM (inactive); in assay [10] it was 41.5 µM (inactive); in assay [11], 27.7 µM (inactive); in assay [12] it was 25.6 µM (inactive); in assay [13], > 100 µM (inactive). Moreover, the GI50 in assay [14] is 22.7 µM (inactive); in assay [15], 16.5 µM (inactive); in assay [16] it was 15.7 µM (inactive); in assay [17] it was > 100 µM (inactive); in [18] it was 25.2 µM (inactive); in [20], 58.9 µM (inactive). Also, the GI50 in assay [19] was 21.5 µM (inactive).
As for `CCOC(=O)N/N=C(\Cc1ccc([N+](=O)[O-])cc1)OCC`, the GI50 in assay [1] was > 100 µM (inactive); in assay [2] it was > 100 µM (inactive); in assay [3], > 100 µM (inactive); in assay [4], > 100 µM; in assay [5], > 100 µM (inactive); in [7], > 100 µM (inactive). Besides, the GI50 in assay [8], in assay [9], in assay [10], in assay [12], in [13] and in [14] was > 100 µM (inactive) in each case. Also, the GI50 in [15], in [16], in assay [18] and in assay [19] was > 100 µM (inactive) each time.
`C[Si](C)(C)c1ccc(-c2c3ccc(-c4cc(Br)cc(Br)c4)nc3nc3nc(-c4cc(Br)cc(Br)c4)ccc23)cc1`: the GI50 was > 100 µM (inactive) in assay [1]; > 100 µM (inactive) in assay [2]; > 100 µM (inactive) in assay [3]; > 100 µM in assay [4]; > 100 µM (inactive) in assay [8]; > 100 µM (inactive) in assay [9]. The GI50 in assay [11], in assay [12], in assay [13], in assay [15], in [16] and in assay [17] was > 100 µM (inactive) throughout. Besides, the GI50 in assay [18], in [20] and in assay [19] was > 100 µM (inactive) in each case.
As for `COc1ccc(-c2c(C#N)c(N)nc(S)c2C#N)cc1`, the GI50 in assay [1] is 21.1 µM (inactive); in assay [2], 24.9 µM (inactive); in assay [3] it was 23.4 µM (inactive); in assay [4], 33.3 µM; in [5] it was 48.6 µM (inactive); in [6], 19.1 µM (inactive). Besides, the GI50 in assay [7] is 43.5 µM (inactive); in assay [8], 30 µM (inactive); in assay [9], 17.3 µM (inactive); in assay [10] it was 17.1 µM (inactive); in assay [11], 31 µM (inactive); in assay [12], 20.5 µM (inactive). Also, the GI50 was > 100 µM (inactive) in assay [13]; 36.7 µM (inactive) in assay [14]; 30.7 µM (inactive) in assay [15]; 27.6 µM (inactive) in [16]; 37.7 µM (inactive) in assay [17]; 36.1 µM (inactive) in assay [18]. The GI50 in assay [19] is 71.3 µM (inactive).
